Several values for one entry are separate records, joined by “and”; a condition that tells them apart may be missing. Equal values may be shown once.
What was measured:
[1] = target: Glycogen synthase kinase-3 beta (Homo sapiens, UniProt P49841); experiment: TR-FRET Assay
In short: (§1)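 Enzyme and test compound were first incubated together for 30 minutes in assay buffer. The kinase reaction followed and was stopped with EDTA. The pSer641 signal was read by time-resolved FRET.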

[2] = target: Glycogen synthase kinase-3 alpha (Homo sapiens, UniProt P49840); experiment: TR-FRET Assay
In short: as §1

Chain of Glycogen synthase kinase-3 alpha (P49840 whole entry): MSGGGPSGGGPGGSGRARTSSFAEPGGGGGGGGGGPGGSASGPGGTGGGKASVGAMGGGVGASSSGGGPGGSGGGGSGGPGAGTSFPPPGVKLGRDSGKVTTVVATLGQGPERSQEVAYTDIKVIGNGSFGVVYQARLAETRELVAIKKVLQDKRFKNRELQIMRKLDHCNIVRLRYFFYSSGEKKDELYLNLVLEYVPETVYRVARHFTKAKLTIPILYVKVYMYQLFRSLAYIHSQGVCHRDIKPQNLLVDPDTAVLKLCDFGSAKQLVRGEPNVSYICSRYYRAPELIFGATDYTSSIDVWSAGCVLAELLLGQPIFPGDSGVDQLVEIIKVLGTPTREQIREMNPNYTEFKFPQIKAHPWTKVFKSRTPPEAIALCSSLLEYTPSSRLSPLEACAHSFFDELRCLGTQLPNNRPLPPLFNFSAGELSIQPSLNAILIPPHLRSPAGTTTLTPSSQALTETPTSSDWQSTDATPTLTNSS
Chain of Glycogen synthase kinase-3 beta (P49841 whole entry): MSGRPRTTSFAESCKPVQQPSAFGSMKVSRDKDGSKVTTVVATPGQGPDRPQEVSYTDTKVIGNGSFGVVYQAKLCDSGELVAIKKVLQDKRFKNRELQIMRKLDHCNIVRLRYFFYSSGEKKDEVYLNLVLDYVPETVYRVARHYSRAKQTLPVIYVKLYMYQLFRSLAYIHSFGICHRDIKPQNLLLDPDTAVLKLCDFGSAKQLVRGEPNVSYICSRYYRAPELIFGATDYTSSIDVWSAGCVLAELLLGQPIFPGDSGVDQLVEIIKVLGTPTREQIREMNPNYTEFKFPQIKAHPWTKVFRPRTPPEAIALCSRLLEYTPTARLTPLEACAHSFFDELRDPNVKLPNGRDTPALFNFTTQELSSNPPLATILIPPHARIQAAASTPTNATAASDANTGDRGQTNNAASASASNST

| SMILES | IC50 [1] | IC50 [2] |
| --- | --- | --- |
| CC[C@@]1(c2cccc(C(F)(F)F)c2)C2=CN=NC2NC2=C1C(=O)C[C@]1(CCN(C)C1=O)C2 (some centres not stated) [US20250313563, Compound 950325] | > 5000 nM | > 5000 nM |
| CC1(C)CC(=O)C2=C(C1)NC1=C(CN=N1)C21CCN(S(=O)(=O)c2ccc(F)cc2)CC1 [US20250313563, Compound 893311] | < 100 nM and 1000 to 5000 nM | < 100 nM and 100 to 1000 nM |
| CCC1(c2cccc(-c3ccnc(C)c3)c2)C2=C(CC(C)(C)NC2=O)NC2N=NC(F)=C21 (configuration not stated) [US20250313563, Compound 948299] | 1000 to 5000 nM | < 100 nM |
| O=C1CC2(CCC2)CC2=C1C1(CCOCC1)C1=C(N=NC1)N2 [US20250313563, Compound 909208] | 100 to 1000 nM | < 100 nM |
| CC[C@]1(c2cccc([C@@H](C)c3ncccn3)c2)C2=CN=NC2NC2=C1C(=O)CC(C)(C)C2 (some centres not stated) [US20250313563, Compound 948058] | < 100 nM and 1000 to 5000 nM | < 100 nM and 100 to 1000 nM |
| CC1(C)CC(=O)C2=C(C1)NC1=C(CN=N1)C21CCC2(CCC(=O)N2C(=O)OC(C)(C)C)CC1 (configuration not stated) [US20250313563, Compound 912217] | > 5000 nM | 1000 to 5000 nM |
| CCC1(c2cccc(C(F)(F)F)c2)C2=CN=NC2NC2=C1C(=O)N(c1cccnc1)CC2 (configuration not stated) [US20250313563, Compound 945637] | 100 to 1000 nM | < 100 nM |
| CC[C@@]1(c2cccc(-c3cc(C)nn3C)c2)C2=CN=NC2NC2=C1C(=O)CC(C)(C)[C@H]2F (some centres not stated) [US20250313563, Compound 947656] | > 5000 nM | 100 to 1000 nM |
| CC[C@]1(c2cccc(-c3ccnc(OC)c3F)c2)C2=CN=NC2NC2=C1C(=O)NC(C)(C)C2 (some centres not stated) [US20250313563, Compound 948520] | 1000 to 5000 nM | 100 to 1000 nM |
| Cc1ccc(C(=O)N2CC3(C2)CC2(CO3)C3=C(N=NC3)NC3=C2C(=O)CC(C)(C)C3)cc1C (configuration not stated) [US20250313563, Compound 947286] | < 100 nM | < 100 nM |
| CCC1(c2cccc(S(=O)(=O)C3CC3)c2)C2=CN=NC2NC2=C1C(=O)NC(C)(C)C2 (configuration not stated) [US20250313563, Compound 945465] | < 100 nM | < 100 nM |
| CC1(C)CC(=O)C2=C(C1)NC1=C(CN=N1)[C@@]21CCOC(C)(C)C1 [US20250313563, Compound 924299] | 100 to 1000 nM | 100 to 1000 nM |
| CC[C@@]1(c2cccc(C(F)F)c2)C2=CN=NC2NC2=C1C(=O)NC(C)(C)C2 (some centres not stated) [US20250313563, Compound 949006] | 100 to 1000 nM and > 5000 nM | < 100 nM and 100 to 1000 nM |
| CC[C@]1(c2cccc(-c3c4c(cn3C)CCCC4)c2)C2=CN=NC2NC2=C1C(=O)NC(C)(C)C2 (some centres not stated) [US20250313563, Compound 948655] | 100 to 1000 nM | < 100 nM |
| CC[C@]1(c2cccc(-c3ccnc(C)c3)c2)C2=CN=NC2NC2=C1C(=O)NC1(CCCC1)C2 (some centres not stated) [US20250313563, Compound 948660] | < 100 nM | < 100 nM |
| CC1(C)CC(=O)C2=C(C1)NC1N=NC=C1C21CCN(S(=O)(=O)c2cnc3n2CCC3)CC1 (configuration not stated) [US20250313563, Compound 947467] | 100 to 1000 nM | < 100 nM |
| CCC1(c2cccc(-c3cc(C)ncc3F)c2)C2=C(CC(C)(C)NC2=O)NC2N=NC(C(F)(F)F)=C21 (configuration not stated) [US20250313563, Compound 948762] | < 100 nM | < 100 nM |
| C[C@H]1C[C@]2(CCO1)C1=C(N=NC1)NC1=C2C(=O)CC(C)(C)C1 [US20250313563, Compound 899560] | 1000 to 5000 nM | 100 to 1000 nM |
| CCC1(c2cccc(-c3ccnc(C)c3F)c2)C2=C(CC(C)(C)NC2=O)NC2N=NC(C)=C21 (configuration not stated) [US20250313563, Compound 947402] | 100 to 1000 nM | < 100 nM |
| CC1(C)CC(=O)C2=C(C1)NC1=C(CN=N1)[C@]21COC2(CN(C(=O)[C@@H]3CC3(F)F)C2)C1 [US20250313563, Compound 948219] | < 100 nM and 1000 to 5000 nM | < 100 nM and 100 to 1000 nM |
| CC[C@@]1(c2ccccc2)C2=CN=NC2NC2=C1C(=O)C[C@@H](C)C2 (some centres not stated) [US20250313563, Compound 789013] | > 5000 nM | 100 to 1000 nM |
| CCC1(c2cccc(-c3c(C)nn(C)c3C)c2)C2=C(CC(C)(C)NC2=O)NC2N=NC(C)=C21 (configuration not stated) [US20250313563, Compound 945598] | < 100 nM | < 100 nM |
| CCC1(c2cccc(C(C)C)c2)C2=C(CC(C)(C)NC2=O)NC2N=NC(C)=C21 (configuration not stated) [US20250313563, Compound 949173] | < 100 nM | < 100 nM |

| SMILES | IC50 [1] | IC50 [2] |
| --- | --- | --- |
| CC[C@@]1(c2cccc(-c3cn(C)nc3C(C)C)c2)C2=CN=NC2NC2=C1C(=O)NC(C)(C)C2 (some centres not stated) [US20250313563, Compound 949111] | 1000 to 5000 nM | 100 to 1000 nM |
| CC[C@@]1(c2cccc(-c3ccncc3C)c2)C2=CN=NC2NC2=C1C(=O)N[C@@]1(CCCOC1)C2 (some centres not stated) [US20250313563, Compound 947909] | 1000 to 5000 nM | 100 to 1000 nM |
| CC1(C)CC(=O)C2=C(NC3=C(CN=N3)C23CCN(S(=O)(=O)c2cccc(C(F)(F)F)c2)CC3)[C@H]1F [US20250313563, Compound 951713] | < 100 nM and 1000 to 5000 nM | < 100 nM and 100 to 1000 nM |
| CC1(C)CC(=O)C2=C(C1)NC1=C(CN=N1)C21CCN(S(=O)(=O)c2cnn(CCF)c2)CC1 [US20250313563, Compound 947903] | < 100 nM | < 100 nM |
| CCC1(c2cccc(Br)c2)C2=C(N=NC2)NC2=C1C(=O)CC(C)(C)C2 (configuration not stated) [US20250313563, Compound 789312] | 100 to 1000 nM | < 100 nM |
| CC[C@@]1(c2cccc(-c3cn(C)nc3C(F)(F)F)c2)C2=CN=NC2NC2=C1C(=O)NC(C)(C)C2 (some centres not stated) [US20250313563, Compound 950563] | < 100 nM | < 100 nM |
| CC(C)Oc1ccc(S(=O)(=O)N2CCC3(CC2)C2=C(N=NC2)NC2=C3C(=O)CC(C)(C)C2)cn1 [US20250313563, Compound 945676] | < 100 nM | < 100 nM |
| CC[C@]1(c2ccc(OC(C)C)cc2)C2=C(CC(C)(C)CC2=O)NC2N=NC(C(F)(F)F)=C21 (some centres not stated) [US20250313563, Compound 947868] | < 100 nM | < 100 nM |
| CCC1(c2cccc(-c3cn(C)nc3C)c2)C2=C(CC(C)(C)NC2=O)NC2N=NC(F)=C21 (configuration not stated) [US20250313563, Compound 948301] | < 100 nM | < 100 nM |
| CC[C@@]1(c2cccc(-c3cc(OC)ncc3F)c2)C2=CN=NC2NC2=C1C(=O)CC(C)(C)C2 (some centres not stated) [US20250313563, Compound 944032] | 1000 to 5000 nM | 100 to 1000 nM |
| CCC1(c2cccc(-c3ccnc(OC)c3C)c2)C2=CN=NC2NC2=C1C(=O)CC(C)(C)C2 (configuration not stated) [US20250313563, Compound 932628] | 100 to 1000 nM | < 100 nM |
| CC[C@]1(c2ccccc2)C2=CN=NC2NC2=C1C(=O)C[C@]1(CCNC1=O)C2 (some centres not stated) [US20250313563, Compound 950161] | > 5000 nM | 1000 to 5000 nM |
| CCC1(c2cccc(-c3cc(C)nn3C)c2)C2=C(N=NC2)NC2=C1C(=O)NC(C)(C)C2 (configuration not stated) [US20250313563, Compound 943371] | 1000 to 5000 nM | < 100 nM |
| CC[C@@]1(c2cccc(-c3cncn3C)c2)C2=C(CC(C)(C)CC2=O)NC2N=NC(C)=C21 (some centres not stated) [US20250313563, Compound 913032] | < 100 nM | < 100 nM |
| CC[C@]1(c2cccc(N3CCCC3)c2)C2=C(CC(C)(C)CC2=O)NC2N=NC(C(F)(F)F)=C21 (some centres not stated) [US20250313563, Compound 819574] | < 100 nM | < 100 nM |
| CC1(C)CC2=C(C(=O)[C@H]1F)[C@]1(CC[C@H](C(F)(F)F)CC1)C1=C(N=NC1)N2 [US20250313563, Compound 918282] | < 100 nM | < 100 nM |
| CC[C@@]1(c2cccc(C(F)(F)F)c2)C2=C(N=NC2)NC2=C1C(=O)NC2 [US20250313563, Compound 917158] | 1000 to 5000 nM | 100 to 1000 nM |
| CC1(C)CC(=O)C2=C(C1)NC1=C(CN=N1)C21CCC2(CC2)CC1 [US20250313563, Compound 893312] | < 100 nM | < 100 nM |
| CC(=O)N1CC2(C1)CC1(CO2)C2=C(N=NC2)NC2=C1C(=O)CC(C)(C)C2 (configuration not stated) [US20250313563, Compound 913058] | < 100 nM and 100 to 1000 nM | < 100 nM |
| CCC1(c2cccc(-c3c(C)nn(C)c3C)c2)C2=C(CC(C)(C)NC2=O)NC2N=NC(C(F)(F)F)=C21 (configuration not stated) [US20250313563, Compound 947568] | < 100 nM | < 100 nM |
| CC(C)[C@@H]1C[C@]2(CCO1)C1=C(N=NC1)NC1=C2C(=O)CC(C)(C)C1 [US20250313563, Compound 884013] | > 5000 nM | 1000 to 5000 nM |
| Cc1cccc(S(=O)(=O)N2CC[C@]3(C2)C2=C(N=NC2)NC2=C3C(=O)CC(C)(C)C2)c1 [US20250313563, Compound 951864] | < 100 nM and 1000 to 5000 nM | < 100 nM |
| CC[C@]1(c2cccc(-c3ccncc3C)c2)C2=C(CC(C)(C)NC2=O)NC2N=NC(C(F)(F)F)=C21 (some centres not stated) [US20250313563, Compound 947812] | < 100 nM | < 100 nM |

Reference: BindingDB's records for patent US20250313563 (The Broad Institute, 2025)
